Reference: patent US20180303863A1, “Pharmaceutical Composition for Treating STK11-Mutation Cancer Using Cardiac Glycosides” (INDUSTRY-ACADEMIC COOPERATION FOUNDATION SOOKMYUNG WOMEN'S …, priority 2014, published 2018)

Legend:
[1] = system: STK11-mutant lung cancer cell lines (A549, H460, H1993, H1395) and STK11-wild-type lung cancer cell lines (H226, H322M, H82, H524); assay: Cell viability (CellTiter-Blue) in STK11-mutant and STK11-wild-type lung cancer cell lines; assay type: cell-based; settings: varying concentration, 72 hours; FIG. 5A
Description: NCI-60 lung cancer cell lines (NCI-H460, A549, NCI-H322M, and NCI-H226) were obtained from the U.S. National Cancer Institute (NCI DTP). All cells were grown in an RPMI medium (GIBCO) supplemented with 10% FBS (GIBCO) and penicillin/[…] (GIBCO), and kept at 37° C. in a humidified atmosphere of 5% CO2.
A total of three cardiac glycosides (chemicals) having the structures shown in FIG. 1 were screened in a lung cancer cell line. Digoxin, ouabain, and digitoxin were all purchased from Sigma Aldrich.
(§1) The cells were seeded in 96-well plates at a density of 2,000, 1,000, and 200 cells per well, and cultured for 3, 7, and 14 days, respectively. After 24 hours of seeding, the cells were treated with a chemical diluted with digitoxin and ouabain at working concentrations of 0.05 μM and 0.02 μM, respectively. The cells were again cultured for 72 hours (3 days), 7 days, and 14 days, and then the cell viability was measured using a CellTiter-Blue assay kit.

[2] = system: STK11-mutant cell line (A549) and cell line (A549-STK11) in which STK11 was restored into the wild type; assay: Cell viability (CellTiter-Blue) in A549 versus the STK11-restored A549-STK11 line; assay type: cell-based; settings: for inhibition of cell growth in lung cancer cell lines A549 and A549-STK11: 96-well plate; for response of the STK11-restored cell line compared to the STK11-mutant cell line (inhibition of cell growth, TiterBlue): FIG. 5B
Description: as §1
In this case, each of a STK11-mutant cell line (A549) and a cell line (A549-STK11) in which STK11 was restored into the wild type were used as the lung cancer cell line.

[3] = system: STK11 mutant cell lines (NCI60 panel); assay: CLEA enrichment analysis of GI50 profiles on the NCI60 panel by STK11 genotype; assay type: cell-based; settings: MOLT-4, A549, NCI-H460, NCI-H23, SK-MEL-5, DU-145, FIG. 3A
Description: To identify sensitivity patterns of the genotype-specific compounds, a subset of the compounds was selected using a GI50 profile pattern on a CLEA map.
First of all, a −logGI50 value of 8 (that is, GI50=0.01 μM) was chosen as a bipartite cutoff used to determine to which cell lines a compound was sensitive on a NCI60 panel. In this case, the compound was sensitive when the value is greater than 8, and was not sensitive when the value is less than 8.
Next, an enrichment score (an AUC value) was used to select the genotype-specific compounds in a CLEA assay.
An AUC value >80 and a P value <0.01 were used as cutoff values used to determine that a compound had significant sensitivity to certain genotypes. In this example, compounds showing strong potency (that is, a −logGI50 value of 8) to at least one cell line on the NCI60 panel were included.
As a result, a total of three non-overlapping compounds satisfying the above filtering requirements were compiled. Hierarchical clustering of these selected compounds was carried out on a category of STK11 genotypes. In this example, three main groups of compounds showing uniform sensitivity based on the mutant genotypes were identified. Such a cluster of compounds were sensitive to genetic mutations in an STK11 gene.

[4] = system: A549 lung cancer cell line; assay: Mouse tumor xenograft model, A549; assay type: in vivo, athymic nude mice
Description: (§2) After athymic nude mice (Oriental Bio Inc) were purchased, the animal model was prepared according to the standard guidelines provided by the Catholic University of Korea-Institutional Animal Care and Use Committee (CUK-IACUC). A549 or A549-LKB 1 wt were subcutaneously injected (3×10^6 cells/ml) into the above animal model, and divided into three groups: (1) an untreated control group (n=10); (2) a group in which the mice were treated with digoxin at 60 ng/kg/body weight (n=10); (3) a group in which the mice were treated with digoxin at 180 ng/kg/body weight (n=10). Digoxin or a vehicle (1.9% DMSO/10% polyethylene glycol 400/l×PBS: a total volume of 200 μl) was orally administered three times a week for 5 weeks. Then, the diameter of each tumor base was measured, and the size of a tumor was then calculated according to the following equation: Tumor size (mm^3)=(length×width×height×0.52). Also, the mice were monitored until the tumor size reached 1 cm^3, and then the mice were sacrificed, and tumors were extracted from the mice.

[5] = system: cell line (A549-LKB1wt) in which STK11 was restored into the wild type; assay: Mouse tumor xenograft model, A549-LKB1wt (STK11 restored); assay type: in vivo, athymic nude mice; settings: oral, three times a week for 5 weeks, 60 or 180 ng/kg/body weight; FIG. 10B
Description: as §2

Row | Structure (SMILES) | inhibition of cell growth, STK11-mutant compared to STK11-wild-type lung cancer cell lines [1] | inhibition of cell growth in lung cancer cell lines A549 and A549-STK11 [2] | response of the STK11-restored cell line compared to the STK11-mutant cell line (inhibition of cell growth, TiterBlue) [2] | sensitivity (GI50 profile) in 6 cell lines with STK11 mutation potential [3] | tumor growth in the STK11-mutant model compared to the wild-type STK11-expressing model ([4]; FIGS. 10C, 10D, 10E) | growth of a tumor ([4]; oral, three times a week for 5 weeks, 60 or 180 ng/kg/body weight, FIG. 10A) | growth of a tumor [5]
1 | C[C@H]1O[C@@H](O[C@H]2[C@@H](O)C[C@H](O[C@H]3[C@@H](O)C[C@H](O[C@H]4CC[C@@]5(C)[C@H](CC[C@@H]6[C@@H]5CC[C@]5(C)[C@@H](C7=CC(=O)OC7)CC[C@]65O)C4)O[C@@H]3C)O[C@@H]2C)C[C@H](O)[C@@H]1O [digitoxin] | specifically inhibited the cell growth | the cell growth was inhibited | resistant | relatively high sensitivity | – | – | –
2 | C[C@H]1O[C@@H](O[C@H]2[C@@H](O)C[C@H](O[C@H]3[C@@H](O)C[C@H](O[C@H]4CC[C@@]5(C)[C@H](CC[C@@H]6[C@@H]5C[C@@H](O)[C@]5(C)[C@@H](C7=CC(=O)OC7)CC[C@]65O)C4)O[C@@H]3C)O[C@@H]2C)C[C@H](O)[C@@H]1O [digoxin] | specifically inhibited the cell growth | the cell growth was inhibited | resistant | relatively high sensitivity | selectively reduced | reduced in a time-dependent manner | did not have the same effect
3 | C[C@@H]1O[C@@H](O[C@H]2C[C@@H](O)[C@]3(CO)[C@H]4[C@H](O)C[C@]5(C)[C@@H](C6=CC(=O)OC6)CC[C@]5(O)[C@@H]4CC[C@]3(O)C2)[C@H](O)[C@H](O)[C@H]1O [ouabain] | specifically inhibited the cell growth | the cell growth was inhibited | resistant | relatively high sensitivity | – | – | –
